Experimental findings from PubChem BioAssay (NCI) are described below.

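All cell lines were grown in 96-well plates and treated with compound for 48 hours. GI50 marks 50% less growth. TGI denotes the concentration required for complete inhibition of growth.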

Test systems include A498 renal; A549 NSCLC; CCRF-CEM leukemia; DU-145 prostate; HS 578T breast; MCF7 breast; NCI-H522 lung; SF-295 CNS; SN12C renal; UACC-62 melanoma.
Common to all, as to experiment: NCI anticancer screen, dose series, 48 h

Consider `C/C(=N\Nc1ccc2ccccc2n1)c1ccccc1O`, for which the TGI in the assay on A498 renal is greater than 100 µM; with A549 NSCLC, greater than 100 µM; in the assay on CCRF-CEM leukemia it was greater than 29.4 µM; in the assay on DU-145 prostate, greater than 100 µM; in the assay with HS 578T breast, greater than 100 µM; with MCF7 breast it was greater than 100 µM. In addition, the TGI in the assay with NCI-H522 lung was greater than 100 µM; in the assay with SF-295 CNS it was 37.2 µM; in the assay on SN12C renal, greater than 100 µM; in the assay with UACC-62 melanoma it was greater than 100 µM.

In the case of `COc1ccccc1CNCCCN1C(=O)c2ccc3c4c(ccc(c24)C1=O)C(=O)N(CCCNCCCCNCCCCN)C3=O`, the GI50 with A498 renal was 0.472 µM; in the assay on A549 NSCLC it was 2.3 µM; with CCRF-CEM leukemia, 0.756 µM; with DU-145 prostate it was 1.62 µM; with HS 578T breast, 2.83 µM; in the assay on MCF7 breast it was 0.498 µM. For the same compound, the GI50 in the assay on NCI-H522 lung was 1.62 µM; in the assay with SF-295 CNS, 2.63 µM; in the assay on SN12C renal, 1.99 µM; in the assay with UACC-62 melanoma, 1.53 µM. The TGI with A498 renal is 4.51 µM; in the assay on A549 NSCLC, 7 µM; with CCRF-CEM leukemia it was greater than 33.4 µM; with DU-145 prostate it was 3.95 µM; in the assay on HS 578T breast it was 14.4 µM; in the assay on MCF7 breast, 2.24 µM. The TGI stood at 6.07 µM with NCI-H522 lung, 11 µM in the assay with SF-295 CNS, 5.9 µM with SN12C renal and 3.66 µM in the assay with UACC-62 melanoma.

`CC(C)(C)C(=O)OCOP(=O)(OCOC(=O)C(C)(C)C)C1CCCN(OC(=O)c2ccccc2)C1=O` (stereo not drawn): the GI50 with A498 renal is 0.283 µM; in the assay on A549 NSCLC, 2.02 µM; in the assay on CCRF-CEM leukemia, 0.643 µM; with DU-145 prostate, 2.62 µM; in the assay on HS 578T breast, 0.71 µM; in the assay on MCF7 breast it was 0.528 µM. In addition, the GI50 was 0.338 µM in the assay on NCI-H522 lung, 0.337 µM in the assay with SN12C renal and 1.09 µM in the assay on UACC-62 melanoma. Also, the TGI with A498 renal was 0.832 µM; in the assay on A549 NSCLC it was 25.2 µM; with CCRF-CEM leukemia, 29.7 µM; in the assay on DU-145 prostate it was greater than 100 µM; in the assay with HS 578T breast it was 38.1 µM; in the assay on MCF7 breast, 10.1 µM. Also, the TGI came out at 1.5 µM in the assay on NCI-H522 lung, 7.19 µM in the assay with SN12C renal and 2.99 µM with UACC-62 melanoma.

On to `O=C(CCc1nnc(-c2c(Cl)cccc2Cl)o1)c1nc2ccccc2[nH]1`, for which the GI50 in the assay on A498 renal is 1.53 µM; in the assay with A549 NSCLC it was 10.4 µM; in the assay on CCRF-CEM leukemia, 4.86 µM; with DU-145 prostate, 17.8 µM; in the assay with HS 578T breast, 9.71 µM; in the assay on MCF7 breast, 4.57 µM. The GI50 with SF-295 CNS is 5.98 µM; in the assay with SN12C renal, 6.22 µM; with UACC-62 melanoma, 3.34 µM. Also, the TGI with A498 renal was 10.1 µM; in the assay on A549 NSCLC, greater than 100 µM; with CCRF-CEM leukemia, 66 µM; in the assay on DU-145 prostate, greater than 100 µM; in the assay with HS 578T breast, 93.9 µM; in the assay with MCF7 breast it was greater than 100 µM. Also, the results for the TGI with SF-295 CNS, in the assay with SN12C renal and in the assay with UACC-62 melanoma were 42.9 µM, 56.9 µM and 27.8 µM, respectively.

Turning to `COc1ccc(-c2cc(-c3ccc(O)cc3)nc3nc(=S)[nH]c(N)c23)cc1`, the GI50 in the assay with A498 renal is 20.5 µM; in the assay with A549 NSCLC, 17.4 µM; with DU-145 prostate, 12.1 µM; in the assay on HS 578T breast, 20.6 µM; in the assay with MCF7 breast it was 12 µM; in the assay on NCI-H522 lung, 8.5 µM. Besides, the GI50 in the assay with SF-295 CNS is 20 µM; in the assay with SN12C renal, 18.5 µM; with UACC-62 melanoma, 14.7 µM. Also, the TGI in the assay with A498 renal was 43.4 µM; with A549 NSCLC, 54.6 µM; in the assay on DU-145 prostate, 35.3 µM; in the assay with HS 578T breast, 48.4 µM; in the assay on MCF7 breast, 35.6 µM; in the assay with NCI-H522 lung, 27.8 µM. Besides, the TGI with SF-295 CNS was determined as 61.6 µM; with SN12C renal, 45.1 µM; with UACC-62 melanoma it was 30.3 µM.

Take `O=C(N/N=C/c1coc2ccc(Cl)cc2c1=O)c1ccncc1`: the GI50 in the assay with A549 NSCLC is 98.2 µM; in the assay on CCRF-CEM leukemia it was 28.1 µM; in the assay with DU-145 prostate it was greater than 100 µM; in the assay with HS 578T breast, 32.6 µM; with MCF7 breast, 47.2 µM; in the assay on NCI-H522 lung it was 58.2 µM. The GI50 with SF-295 CNS was 50.1 µM; with SN12C renal, 43.2 µM; in the assay on UACC-62 melanoma, 46.5 µM. Further, the TGI in the assay with A549 NSCLC, in the assay with CCRF-CEM leukemia, in the assay on DU-145 prostate, in the assay on HS 578T breast, with MCF7 breast and in the assay with NCI-H522 lung was greater than 100 µM each time. The TGI in the assay with SF-295 CNS, in the assay with SN12C renal and with UACC-62 melanoma was greater than 100 µM in each case.

As for `COc1ccc(-c2cn(-c3ccc(Cl)cc3)c(=S)[nH]2)cc1OC`, the GI50 with A498 renal is 3.63 µM; in the assay with A549 NSCLC it was 66.4 µM; in the assay on CCRF-CEM leukemia, greater than 100 µM; in the assay with DU-145 prostate, 14 µM; in the assay with HS 578T breast it was 19.2 µM; with MCF7 breast, 4.77 µM. Further, the GI50 was 21.5 µM with NCI-H522 lung, 6.05 µM in the assay on SF-295 CNS and 7.52 µM with SN12C renal. Also, the TGI in the assay on A498 renal is 53.9 µM; in the assay with A549 NSCLC it was greater than 100 µM; in the assay on CCRF-CEM leukemia, greater than 100 µM; in the assay on DU-145 prostate it was greater than 100 µM; in the assay with HS 578T breast it was greater than 100 µM; with MCF7 breast, greater than 100 µM. Further, the TGI with NCI-H522 lung, in the assay on SF-295 CNS and in the assay with SN12C renal was greater than 100 µM each time.

Take `COC1OCC(OS(=O)(=O)c2ccc(C)cc2)C(OC(=O)c2ccccc2)C1OC(=O)c1ccccc1` (stereo not drawn): the GI50 with A498 renal is 4.53 µM; in the assay with A549 NSCLC, 6.14 µM; with CCRF-CEM leukemia it was 4.74 µM; with DU-145 prostate it was 19.7 µM; with HS 578T breast, 1.89 µM; in the assay with MCF7 breast, 3.01 µM. The GI50 in the assay with NCI-H522 lung is 1.56 µM; with SF-295 CNS it was 3.63 µM; in the assay on UACC-62 melanoma, 3.48 µM. Moreover, the TGI in the assay on A498 renal was 90.9 µM; in the assay with A549 NSCLC it was greater than 100 µM; with CCRF-CEM leukemia, greater than 100 µM; in the assay with DU-145 prostate, greater than 100 µM; in the assay on HS 578T breast, 27.4 µM; with MCF7 breast, greater than 100 µM. The TGI is 7.09 µM in the assay on NCI-H522 lung, greater than 100 µM in the assay on SF-295 CNS and greater than 100 µM with UACC-62 melanoma.
